Literature values in patent US4769378A, “Indenopyrimidine aromatase inhibitors” (Eli Lilly and Company, priority 1986, dated 1988).

Tested on: breast cancer
Conditions: Cancer Research, Vol. 42, Suppl 8 (1982); cited from earlier work

| Compound | effect in treatment of breast cancer |
| --- | --- |
| CCC1(c2ccc(N)cc2)CCC(=O)NC1=O (centres unmarked) [aminoglutethimide] | beneficial effect in treatment of breast cancer |
| C[C@]12CCC(=O)C=C1CC[C@@H]1[C@@H]2CC[C@]2(C)OC(=O)CC[C@@H]12 [testololactone] | beneficial effect in treatment of breast cancer |
